Converted amounts (≈) assume the structure as drawn. “And” between values parts separate entries of the source, which are not always exact repeats. Identical values can stand only once.

The test system of data set [1] is non-selective α1 adrenergic receptor. The data set can be described thus: α1 adrenergic receptor binding at 10 μM ([3H]prazosin). The note with it: 0.25 nM [3H]prazosin, rat cerebral cortex membranes. How it is done: (§1) α1 Adrenergic and Dopamine D2 Receptors. Methods: Binding and functional assays for α1 adrenergic and dopamine D2 receptors were performed by Eurofins Cerep according to their methods.
α1 Adrenergic Receptor. Binding at 10 μM. The binding assay evaluated the affinity of test article for the non-selective α1 adrenergic receptor in rat cerebral cortex. Membrane homogenates of cerebral cortex were incubated in duplicate for 60 minutes at room temperature with 0.25 nM [^3H]prazosin in the absence or presence of test articles at 10 μM. After the incubation period, samples were filtered through glass fiber filters, the filters dried and then counted for radioactivity using a scintillation counter. Results are expressed as mean percent inhibition of control radioligand binding.

For a further data set, the target named is T1, dopamine D2S receptor (Homo sapiens, UniProt P14416).
T1 construct: host or cells: HEK-293
The experiment in a line: Dopamine D2S receptor binding at 10 μM. The conditions noted are these: transfected HEK-293 cell membranes, read-out: Dopamine D2S % Inh. (@10 μM). On the procedure: as §1
Dopamine D2 Receptor. Binding at 10 μM. The binding assay evaluated the affinity of test articles for the dopamine D2 receptor in transfected human embryonic kidney (HEK)-293 cells. For determining the binding in the D2S receptor assay, test article was incubated with 0.3 nM [^3H] methylspiperone or 1 nM [^3H] 7-hydroxy-2-N,N-dipropylaminotetralin (7-OH-DPAT). [^3H] Methylspiperone at 0.3 nM also was used as control ligand in the D2L binding assay. Cell membrane homogenates were incubated in duplicate at room temperature for 60 minutes with ligand in the absence or presence of test articles at 10 μM. After the incubation period, samples were filtered through glass fiber filters, the filters dried and then counted for radioactivity using a scintillation counter. Results are expressed as mean percent inhibition of control radioligand binding.

The nature of data set [2]: Thermal treatment / racemization on heating. Type of data set: physicochemical. On the procedure:
Thermal treatment of solid forms: the following table summarizes two experiments carried out using solvent-free thermal treatment of forms of Compound 1. The goal of these experiments was to determine whether the endotherm at 225° C. observed in many DSC experiments corresponded to the melting of the racemate of Compound 1 or whether it was a polymorphic form of Compound 1. Two experiments involved generation of different solid forms of Compound 1, the amorphous form and Form E. The resulting products were subsequently heated to temperatures where exothermic events had been observed in DSC thermograms. Both experiments confirmed that the racemate was generated by heating.
Racemization of Compound 1 during the DSC analysis was confirmed by heating the samples to various temperatures and analyzing these samples by a chiral HPLC method as well as by comparison of the melting point with a pure sample of the racemate of Compound 1. Upon heating the sample to 160° C., the chiral purity was essentially unchanged (96.1 area % at 160° C. vs. 97.1% initial). This supports the interpretation of the sharp endotherm seen in the DSC thermogram at about 152.6° C. as the melt of the enantiomer. Between 160-218° C. a gradual conversion of the enantiomer to the racemate occurs along with the recrystallization of the racemate. This explains the unsteady baseline over this temperature range and the small broad endotherm observed at about 197.1° C. […] This melting point matches the peak melting point (about 225.6° C.) of the pure racemate of Compound 1.

The nature of data set [3]: Competitive slurry and slurry stability experiments. It is filed as physicochemical. The conditions noted are these: aqueous slurry at room temperature, within 24 hr. How it is done: Form B was obtained at room temperature while form C was obtained at 45° C. in acetone alone.
The HBr salt was largely insoluble in various buffers when 1 mg/mL slurries were prepared and the mother liquor concentration determined (by HPLC): <0.05 mg/mL in all buffers tested.

A short description of data set [4]: Mechanical stressing (grinding, compression). Type of data set: physicochemical. The note with it: ground with a mortar and pestle for 2 min; listed as Form B. How it is done: Mechanical stressing experiment: the following table describes three experiments involving mechanical stressing of Form A and/or Form B of free base Compound 1 by grinding with a mortar and pestle.
Shear Sensitivity: Form K was compressed under 2000 psi for 1 minute and analyzed by XRPD.

The nature of data set [5]: Dynamic vapor sorption / hygroscopicity. Type of data set: physicochemical. The conditions noted are these: listed as Form B. On the procedure:
Projekt Messtechnik (now ProUmid) SPS11-100n. The sample was placed on an aluminum holder on top of a microbalance and allowed to equilibrate at 50% r.h. before starting one of the following pre-defined humidity programs (1 cycle): • hold 2 h at 50% r.h., • decrease humidity −5% r.h. h^−1 for 10 h (i.e., from 50% r.h. to 0% r.h.), • hold 5 h at […]., • increase humidity +5% r.h. h^−1 for 19 h (i.e., from 0% r.h. to 95% r.h.), • hold 5 h at 95% r.h., • decrease humidity −5% r.h. h^−1 for 9 h (i.e., from 95% r.h. to 50% r.h.), • hold 2 h at 50% r.h. or • hold 2 h at 50% r.h., • increase humidity +5% r.h. h^−1 for 9 h (i.e., from 50% r.h. to 95% r.h.), • hold 5 h at 95% r.h., • decrease humidity −5% r.h. h^−1 for 19 h (i.e., from 95% r.h. to 0% r.h.), • hold 5 h at 0% r.h., • increase humidity +5% r.h. h^−1 for 10 h (i.e., from 0% r.h. to 50% r.h.), • hold 2 h at 50% r.h.
The hygroscopicity was classified based on the mass gain at 85% r.h. relative to the initial mass as follows: deliquescent (sufficient water adsorbed to form a liquid), very hygroscopic (mass increase of […]), hygroscopic (mass increase of <15% but ≥2%), slightly hygroscopic (mass increase of <2% but ≥0.2%), or non-hygroscopic (mass increase of <0.2%).

A short description of data set [6]: Solubility of polymorphic forms in physiologically relevant media and final pH. It is filed as physicochemical. The note with it: listed as Form B. The source says: Solubility data of the several polymorphic forms of Compound 1 in physiologically relevant media and the final pH of these solutions are summarized in the following tables.
A short description of data set [7]: Solid state stability under accelerated storage conditions. Type of data set: physicochemical. The conditions noted are these: for Chiral purity after storage: initial value 97.96 area %; for area % chemical purity after storage: initially 98.4%. On the procedure:
Form A was not isolated directly as a wet cake but formed only upon drying of Form E in polymorphism studies. […] Small quantities of Form A were generated by dissolving a crude Compound 1 in MEK at high temperature, followed by fast cooling to room temperature, filtration and drying. DSC and TGA data were obtained for samples of Form A and following storage for 1 week at 60° C. and 60° C./75% RH. […] TGA analysis confirmed that this broad endotherm was most likely due to moisture uptake under the accelerated storage conditions. Most of the weight loss of 0.82% in this sample occurred in a single step at less than 75° C. By contrast, weigh loss was a two-step process at the initial time point. […] The residual solvent initially present in the sample was lost upon storage of the sample at 60° C. (0.13% weight loss between 25 to 150° C.).
Form B could be obtained from a process involving methyl acetate. […] HPLC traces were taken of the samples of Form B and following storage for 2 week at 60° C. and 60° C./75% RH. […] Several small degradation products were seen to grow especially in the sample stored at 60° C. Chiral instability was also observed in the sample stored at 60° C./75% RH.
Physical stability: Visually, all samples of Form K were white colored powder with no apparent change in color in the samples stored under accelerated conditions (40° C., 40° C./75% RH, 60° C., 60° C./75% RH and sample stored in light chamber in clear vials exposed to light and covered in aluminum foil) for 14 d relative to the sample stored refrigerated and under ambient conditions.
Solid state chemical stability: HPLC analysis were performed on Form K samples stored under the accelerated stability conditions. […] Based on the HPLC analysis data, there is a measurable but small change in the chemical stability of Form K under the accelerated conditions of temperature, humidity and exposure to light over the 14 d period.
Solid state chiral stability: Chiral stability of Form K samples stored under accelerated stability conditions was tested. There was ˜2.9% of the R-enantiomer (97.1 area % of the active S-isomer) in the initial sample. […]
The chiral purity (area % of S-isomer) remained […] under the accelerated stability conditions.

T1 sequence (P14416 1-414 isoform P14416-2): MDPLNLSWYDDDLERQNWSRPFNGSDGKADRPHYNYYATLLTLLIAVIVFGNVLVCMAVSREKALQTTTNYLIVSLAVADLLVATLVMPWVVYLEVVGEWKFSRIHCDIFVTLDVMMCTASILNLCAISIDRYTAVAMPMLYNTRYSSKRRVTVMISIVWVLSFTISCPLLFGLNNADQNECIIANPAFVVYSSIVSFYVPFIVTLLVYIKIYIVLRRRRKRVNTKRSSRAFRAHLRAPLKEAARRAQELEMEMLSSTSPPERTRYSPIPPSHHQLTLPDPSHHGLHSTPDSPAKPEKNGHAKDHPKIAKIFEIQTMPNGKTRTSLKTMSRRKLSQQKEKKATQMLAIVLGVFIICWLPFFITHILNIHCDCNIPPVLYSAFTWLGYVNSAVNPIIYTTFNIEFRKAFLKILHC

As to `N#Cc1ccc(N2CCN(Cc3ccc(COc4cccc5c4CN([C@H]4CCC(=O)NC4=O)C5=O)cc3)CC2)c(F)c1` [Compound 1, (S)-4-(4-(4-(((2-(2,6-dioxopiperidin-3-yl)-1-oxoisoindolin-4-yl)oxy)methyl)benzyl)piperazin-1-yl)-3-fluorobenzonitrile], in data set [1], the “Adrenergic α1 % Inh. (@10 μM)” value was 67% and 62%. In addition, the inhibition at 10 µM on dopamine D2S receptor was found to be 55%. In addition, the racemization on heating result in data set [2] (DSC heating, chiral HPLC, gradual between 160-218° C.) was “almost complete by 218 °C”. Moreover, in data set [2] (heated to 160° C., 97.1% initial), the “chiral purity upon heating” value was found to be 96.1 area %.
For orientation: Solubility means the concentration that dissolves in the medium under given conditions. As for `N#Cc1ccc(N2CCN(Cc3ccc(COc4cccc5c4CN([C@H]4CCC(=O)NC4=O)C5=O)cc3)CC2)c(F)c1` [Form B of a free base of Compound 1], the “competitive slurry with Form C” value in data set [3] is reported as “rapidly converted to Form C”. Moreover, the “PXRD result after mechanical treatment” value in data set [4] was “no change in polymorphic form”. Also, the hygroscopicity result in data set [5] (DVS, class by mass gain at 85% r.h.) is “slightly hygroscopic (slightly hygroscopic (mass increase of <2% but ≥0.2%))”. In addition, the DVS mass increase result in data set [5] (relative humidity from about 5% to about 95%) is listed as “about 3.1%”. Besides, the Solubility was 77 µg/mL (≈ 136 µM) in data set [6] (FeSSiF); 406 µg/mL (≈ 715 µM) in data set [6] (SGF with pepsin); 85 µg/mL (≈ 150 µM) in data set [6] (pH 1 buffer HC1/NaC1); 125 µg/mL (≈ 220 µM) in data set [6] (pH 3 buffer (phosphate)); 115 µg/mL (≈ 203 µM) in data set [6] (pH 4 buffer (acetate)); 7 µg/mL (≈ 12.3 µM) in data set [6] (pH 5 buffer (acetate)). The “Final pH” value in data set [6] (solubility sample in FaSSIF) is given as 6.43; in data set [6] (solubility sample in FeSSiF) it was 5.03; in data set [6] (solubility sample in SGF with pepsin), 1.29; in data set [6] (solubility sample in Water) it was 6.46; in data set [6] (solubility sample in pH 1 buffer HC1/NaC1) it was 1.09; in data set [6] (solubility sample in pH 3 buffer (phosphate)), 4.05. Besides, the “Final pH” value is on record as 4.11 in data set [6] (solubility sample in pH 4 buffer (acetate)) and 5.05 in data set [6] (solubility sample in pH 5 buffer (acetate)). Further, the “Chiral purity after storage” value in data set [7] (2 week at 60° C./75% RH) is 96.54 area %; in data set [7] (2 week at 60° C.), “remained unchanged”. The figures for the “area % chemical purity after storage” value in data set [7] (2 week at 60° C./75% RH) and in data set [7] (2 week at 60° C.) were 97.92% and 97.71%, respectively. Also, the colour after storage entry in data set [7] (stored at 60° C., initially white to light brown) was “Color change was observed”.
In the case of `O=C1CCC(N2Cc3c(OCc4ccc(CN5CCN(c6ccc(F)cc6F)CC5)cc4)cccc3C2=O)C(=O)N1` (racemic) [Compound A, 3-(4-((4-((4-(2,4-difluorophenyl)piperazin-1-yl)methyl)benzyl)oxy)-1-oxoisoindolin-2-yl)piperidine-2,6-dione, reference compound], the “Adrenergic α1 % Inh. (@10 μM)” value in data set [1] is recorded as 102%.

For the origin of these results see patent US12391672B2, “Solid forms comprising (S)-4-(4-(4-(((2-(2,6-dioxopiperidin-3-yl)-1-oxoisoindolin-4-yl)oxy)methyl)benzyl)piperazin-1-yl)-3-fluorobenzonitrile and salts thereof, and compositions comprising and methods of using the same” (Celgene Corporation, priority 2019, dated 2025).
